Source: ChEMBL document CHEMBL5729210, “Benzodiazepine derivatives as RSV inhibitors” (2022)
Where “and” joins values, the source holds several entries; their conditions need not be identical. Equal values may be shown once.

Assay: RSV-A Assay: The description is Japanese.

With `Cc1nsc(N2CCOCC2)c1-c1nnc(N[C@H]2N=C(c3ccccc3)c3ccccc3NC2=O)o1` the EC50 was “in the range around 600 nM”.
For `O=C1Nc2ccccc2C(c2ccccc2)=N[C@@H]1Nc1nnc(-c2cn(-c3ccc(C(F)(F)F)cn3)nc2N2CCOCC2)o1`, the EC50 was “in the range around 600 nM”.
With `O=C1Nc2ccccc2C(c2ccccc2)=N[C@@H]1Nc1nnc(-c2oc3cc(F)ccc3c2N2CCOCC2)o1` the EC50 was “in the range around 600 nM”.
For `COC[C@@H](C)Nc1sc(C(F)(F)F)nc1-c1nnc(N[C@H]2N=C(c3ccccc3)c3ccccc3NC2=O)o1`, the EC50 was “in the range around 600 nM”.
For `O=C1Nc2ccccc2C(c2ccccc2)=N[C@@H]1Nc1nnc(-c2cn(CC3CC3)nc2N2CCOCC2)o1`, the EC50 was < 400 nM and in the range around 600 nM.
With `O=C1Nc2ccccc2C(c2ccccc2)=N[C@@H]1Nc1nnc(-c2nc(C(F)(F)F)sc2NCC2COC2)o1` the EC50 was “in the range around 600 nM”.
In the case of `O=C1Nc2ccccc2C(c2ccccc2)=N[C@@H]1Nc1nnc(-c2cn(-c3ccc(C(F)(F)F)nc3)nc2N2CCOCC2)o1`, the EC50 is reported as < 400 nM and in the range around 600 nM.
With `CCOC(=O)c1cnn2c1N(CCOC)CCC2` the EC50 was “in the range around 600 nM”.
In the case of `O=C1Nc2ccccc2C(c2ccccc2)=N[C@@H]1Nc1nnc(-c2ncc(C(F)(F)F)cc2N2CCOCC2)o1` [ZELICAPAVIR], the EC50 is reported as < 400 nM (2×) and > 800 nM.

`O=C1Nc2ccccc2C(c2ccccc2)=N[C@@H]1Nc1nnc(-c2nc3ccccc3nc2N2CCOCC2)o1` and `O=C1Nc2ccccc2C(c2ccccc2)=N[C@@H]1Nc1nnc(-c2cc3ccccc3nc2N2CCOCC2)o1` cannot be ordered by EC50: < 400 nM for the first, < 400 nM for the second.

First: Cc1cc(-c2nnc(N[C@H]3N=C(c4ccccc4)c4ccccc4NC3=O)o2)n(C2CCOCC2)n1
Second: O=C1Nc2ccccc2C(c2ccccc2)=N[C@@H]1Nc1nnc(-c2cn(C3CCC3)nc2N2CCOCC2)o1
The EC50 of the first is higher: > 800 nM for the first, < 400 nM for the second.

`N#Cc1ccn2ncc(-c3nnc(N[C@H]4N=C(c5ccccc5)c5ccccc5NC4=O)o3)c2c1` and `N#Cc1ccc2nccc(-c3nnc(N[C@H]4N=C(c5ccccc5)c5ccccc5NC4=O)o3)c2c1` cannot be ordered by EC50: > 800 nM for the first, > 800 nM for the second.

`CCOC(=O)c1nc(C2(O)CCC2)sc1N1CCOCC1` and `CCOC(=O)c1ncc(C(F)F)cc1N1CCOCC1` cannot be ordered by EC50: < 400 nM for the first, < 400 nM for the second.

`O=C1Nc2ccccc2C(c2ccccc2)=NC1Nc1nnc(-c2cn(-c3ccc(F)cn3)nc2N2CCOCC2)o1` (stereo not drawn) and `O=C1Nc2ccccc2C(c2ccccc2)=N[C@@H]1Nc1nnc(-c2cn(-c3ccccn3)nc2N2CCOCC2)o1` cannot be ordered by EC50: < 400 nM for the first, < 400 nM for the second.

`CCOC(=O)c1csc(C(F)(F)C(F)(F)F)n1` and `CCOC(=O)c1nc(C(F)(F)F)sc1C1=CCOCC1` cannot be ordered by EC50: < 400 nM for the first, < 400 nM for the second.

`O=C1Nc2ccccc2C(c2ccccc2)=N[C@@H]1Nc1nnc(-c2nc(-c3ccccc3F)sc2N2CCOCC2)o1` and `O=C1Nc2ccccc2C(c2ccccc2)=N[C@@H]1Nc1nnc(-c2nc(-c3ccc(F)cc3)sc2N2CCOCC2)o1` cannot be ordered by EC50: < 400 nM for the first, < 400 nM for the second.

First: COCCNc1sccc1-c1nnc(N[C@H]2N=C(c3ccccc3)c3ccccc3NC2=O)o1
Second: COCCNc1sc(C(F)(F)F)nc1-c1nnc(N[C@H]2N=C(c3ccccc3)c3ccccc3NC2=O)o1
The EC50 of the first is higher: > 800 nM for the first, < 400 nM for the second. The second is the more potent here.

`CO[C@@H]1COC[C@H]1Nc1cc(C(F)(F)F)cnc1-c1nnc(N[C@H]2N=C(c3ccccc3)c3ccccc3NC2=O)o1` and `O=C1Nc2ccccc2C(c2ccccc2)=N[C@@H]1Nc1nnc(-c2ncc(C(F)(F)F)cc2NC2COC2)o1` cannot be ordered by EC50: < 400 nM for the first, < 400 nM for the second.

First: O=C1Nc2ccccc2C(c2ccccc2)=N[C@@H]1Nc1nnc(-c2ncc(C(F)(F)F)cc2N[C@@H]2CCOC2)o1
Second: O=C1Nc2ccccc2C(c2ccccc2)=N[C@@H]1Nc1nnc(-c2ncc(C(F)(F)F)cc2N[C@H]2CCOC2)o1
The EC50 of the first is lower: < 400 nM for the first, > 800 nM for the second. The first is the more potent here.

Compared with `O=C1Nc2ccccc2C(c2ccccc2)=NC1Nc1cc(N2CCOCC2)cnn1` (stereo not drawn), `O=C1Nc2ccccc2C(c2ccccc2)=N[C@@H]1Nc1nnc(-c2ccsc2N2CCOCC2)o1` is lower in EC50: > 800 nM for the first, < 400 nM for the second.

Compared with `COCCCc1sc(C)nc1-c1nnc(N[C@H]2N=C(c3ccccc3)c3ccccc3NC2=O)o1`, `CO[C@@H](C)CNc1sc(C(F)(F)F)nc1-c1nnc(N[C@H]2N=C(c3ccccc3)c3ccccc3NC2=O)o1` is lower in EC50: > 800 nM for the first, < 400 nM for the second. The second is the more potent here.

`CC(C)(c1nc(-c2nnc(N[C@H]3N=C(c4ccccc4)c4ccccc4NC3=O)o2)c(N2CCOCC2)s1)N1CCOCC1` and `CC(C)(O)c1nc(-c2nnc(N[C@H]3N=C(c4ccccc4)c4ccccc4NC3=O)o2)c(N2CCOCC2)s1` cannot be ordered by EC50: < 400 nM for the first, < 400 nM for the second.

`COC[C@H]1C[C@@H]1c1cc(C(F)(F)F)cnc1-c1nnc(N[C@@H]2N=C(c3ccccc3)c3ccccc3NC2=O)o1` and `COC[C@H]1C[C@@H]1c1cc(C(F)(F)F)cnc1-c1nnc(N[C@H]2N=C(c3ccccc3)c3ccccc3NC2=O)o1` cannot be ordered by EC50: > 800 nM for the first, > 800 nM for the second.

`O=C1Nc2ccccc2C(c2ccccc2)=N[C@@H]1Nc1nnc(-c2nc(-c3ccncc3)sc2N2CCOCC2)o1` and `CC1(c2nc(-c3nnc(N[C@H]4N=C(c5ccccc5)c5ccccc5NC4=O)o3)c(N3CCOCC3)s2)CCC1` cannot be ordered by EC50: < 400 nM for the first, < 400 nM for the second.

Compared with `O=C1Nc2ccccc2C(c2ccccc2)=N[C@@H]1Nc1nnc(-c2nc(C(F)(F)F)sc2N[C@@H]2CCOC2)o1`, `O=C1Nc2ccccc2C(c2ccccc2)=N[C@H]1Nc1nnc(-c2nc(C(F)(F)F)sc2N2CCO[C@H]3C[C@H]32)o1` is higher in EC50: < 400 nM for the first, > 800 nM for the second. The first is the more potent here.

`CCOC(=O)c1cnn2ccc(C)cc12` and `COC[C@@H]1C[C@H]1c1cc(C(F)(F)F)cnc1-c1nnc(N[C@H]2N=C(c3ccccc3)c3ccccc3NC2=O)o1` cannot be ordered by EC50: > 800 nM for the first, > 800 nM for the second.

`O=C1Nc2ccccc2C(c2ccccc2)=N[C@@H]1Nc1nnc(-c2ncc(C(F)(F)F)cc2N2CCOC(C(F)(F)F)C2)o1` (stereo partly drawn) and `O=C1Nc2ccccc2C(c2ccccc2)=N[C@@H]1Nc1nnc(-c2ncc(C(F)(F)F)cc2N2CCOC3CC32)o1` (stereo partly drawn) cannot be ordered by EC50: < 400 nM for the first, < 400 nM for the second.

`O=C1OCCc2cc(C(F)(F)F)cnc21` and `O=C1Nc2ccccc2C(c2ccccc2)=N[C@@H]1Nc1nnc(-c2ncc(C(F)(F)F)cc2N2CCOc3ccccc32)o1` cannot be ordered by EC50: > 800 nM for the first, > 800 nM for the second.

`COC[C@@H]1CCCN1c1sc(C(F)(F)F)nc1-c1nnc(N[C@H]2N=C(c3ccccc3)c3ccccc3NC2=O)o1` and `COC[C@H]1CCCN1c1sc(C(F)(F)F)nc1-c1nnc(N[C@H]2N=C(c3ccccc3)c3ccccc3NC2=O)o1` cannot be ordered by EC50: > 800 nM for the first, > 800 nM for the second.

Compared with `O=C1Nc2ccccc2C(c2ccccc2)=N[C@H]1Nc1nnc(-c2nc(C(F)(F)F)sc2N2CCO[C@@H]3C[C@@H]32)o1`, `O=C1Nc2ccccc2C(c2ccccc2)=N[C@@H]1Nc1nnc(-c2nc(C(F)(F)F)sc2N2CCO[C@H]3C[C@H]32)o1` is lower in EC50: > 800 nM for the first, < 400 nM for the second.

Compared with `O=C1Nc2ccccc2C(c2ccccc2)=N[C@@H]1Nc1nnc(-c2nc(C3(C(F)(F)F)CCC3)sc2N2CCOCC2)o1`, `O=C1Nc2ccccc2C(c2ccccc2)=N[C@@H]1Nc1nnc(-c2cn(CC(F)(F)F)nc2N2CCOCC2)o1` is higher in EC50: < 400 nM for the first, > 800 nM for the second.

Going from `O=C1Nc2ccccc2C(c2ccccc2)=N[C@@H]1Nc1cc(-c2ccccc2)cnn1` to `O=C1Nc2ccccc2C(c2ccccc2)=N[C@@H]1Nc1nnc(-c2oc3cccc(F)c3c2N2CCOCC2)o1`, the EC50 falls from > 800 nM to < 400 nM. The second is the more potent here.

`COC[C@@H]1C[C@H]1c1cc(C(F)(F)F)cnc1-c1nnc(N[C@@H]2N=C(c3ccccc3)c3ccccc3NC2=O)o1` and `O=C1Nc2ccccc2C(c2ccccc2)=N[C@@H]1Nc1nnc(-c2nc(C(F)(F)F)sc2N2CCO[C@@H]3C[C@@H]32)o1` cannot be ordered by EC50: > 800 nM for the first, > 800 nM for the second.

In the case of `COC1C2CNCC21` (stereo not drawn), the EC50 is reported as > 800 nM.
